Laboratory results published in the supplement of paper PMC11208160.

Test: recombinant barcode read abundance after kanamycin selection (control-corrected) (log10(CPM+1)); higher = more efficient recombination; sequences stand for … in AGTGCAGAGAAAATCGGCCAGTTTTCTCTGCCTGCAGTCCGCATGCCGT…AGATTTATGCAGCGGACTGCCTTTCTCCCAAAGTGATAAACCGGACAGTATCATGGACCGGTTTTCCCGGTAATCCGTATTTGCAAGGTTGGTTTCACT; site = the 11-nt target
Procedure, shortened: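 Pooled E. coli screen pairing targets with IS621 bridge RNA target-binding loops. Each oligo (promoter, target, barcode, J23119-driven first 104 bridge RNA bases) was Gibson-cloned into a vector with the remaining 73 bp and T7-inducible recombinase, then co-electroporated with a donor plasmid. Two replicates each were plated on chloramphenicol/ampicillin LB agar (control) or chloramphenicol/ampicillin/kanamycin with 0.1 mM IPTG. Recombination efficiency is recombinant-junction barcode counts as CPM, averaged, control-corrected, reported as log10(CPM+1).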
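Also: IS621 recombinase and bridge RNA in Escherichia coli cells.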

Sequence	recombinant barcode read abundance (log10)
TTCACGCCTTGGGTTCTAACCTGTTGCCT (site TTCACGCCTAG)	0.187
TTCACGCCTTGGGTTCTAACCTGTTGCCT (site TTCCCGCCTAG)	0.127
TTCACGCCTTGGGTTCTAACCTGTTGCCT (site TTCGCGCCTAG)	0.0353
TTCACGCCTTGGGTTCTAACCTGTTGCCT (site TTCTCGCCTAG)	0.214
TTCACGGCTTGGGTTCTAACCTGTTGCCT (site TTAACGGCTAG)	0.223
TTCACGGCTTGGGTTCTAACCTGTTGCCT (site TTCACGGCTAG)	0.0164
TTCCAATCTTGGGTTCTAACCTGTTGCCA (site TGCCAATCTAG)	0.0654
TTCCAATCTTGGGTTCTAACCTGTTGCCA (site TTCCAATCTTG)	0.713
TTCCCCACTTGGGTTCTAACCTGTTGCCT (site AATATAGCTTA)	0.115
TTCCCCACTTGGGTTCTAACCTGTTGCCT (site TTCCCCACTAG)	1.11
TTCCCGCCTTGGGTTCTAACCTGTTGCCT (site TTCACGCCTAG)	0.0618
TTCCCGCCTTGGGTTCTAACCTGTTGCCT (site TTCCCGCCTAG)	0.543
TTCCCGCCTTGGGTTCTAACCTGTTGCCT (site TTCGCGCCTAG)	0.489
TTCCCGCCTTGGGTTCTAACCTGTTGCCT (site TTCTCGCCTAG)	0.155
TTCCGAGCTTGGGTTCTAACCTGTTGCGG (site TGTCGAGCTCC)	0.0848
TTCCGAGCTTGGGTTCTAACCTGTTGCGG (site TTCCGAGCTCC)	1.01
TTCGAAACTTGGGTTCTAACCTGTTGCGT (site TCCGAGACTAC)	0.221
TTCGAAACTTGGGTTCTAACCTGTTGCGT (site TTCGAAACTAC)	1.46
TTCGCATCTTGGGTTCTAACCTGTTGCTT (site CCAAGGCCTCG)	0.209
TTCGCATCTTGGGTTCTAACCTGTTGCTT (site TTCGCATCTAA)	0.178
TTCGTAGCTTGGGTTCTAACCTGTTGCCT (site TTCGTAGCTAC)	0.0736
TTCGTAGCTTGGGTTCTAACCTGTTGCCT (site TTCGTAGCTAG)	1.22

Sequence	recombinant barcode read abundance (log10)
TTCGTTGCTTGGGTTCTAACCTGTTGCCT (site ATCGTTGCTAG)	0.0494
TTCGTTGCTTGGGTTCTAACCTGTTGCCT (site CTCGTTGCTAG)	0.41
TTCGTTGCTTGGGTTCTAACCTGTTGCCT (site GTCGTTGCTAG)	0.0105
TTCGTTGCTTGGGTTCTAACCTGTTGCCT (site TTCGTTGCTAG)	0.302
TTCTAGACTTGGGTTCTAACCTGTTGCGG (site TCCTAGACTCC)	0.189
TTCTAGACTTGGGTTCTAACCTGTTGCGG (site TTCTAGACTCC)	1.94
TTCTATCCTTGGGTTCTAACCTGTTGCCT (site TTCTATCCTAG)	0.486
TTCTATCCTTGGGTTCTAACCTGTTGCCT (site TTCTCTCCTAG)	0.286
TTCTATCCTTGGGTTCTAACCTGTTGCCT (site TTCTGTCCTAG)	0.0469
TTCTATCCTTGGGTTCTAACCTGTTGCCT (site TTCTTTCCTAG)	0.094
TTCTATGCTTGGGTTCTAACCTGTTGCGT (site AAGCGCTCTCA)	0.0654
TTCTATGCTTGGGTTCTAACCTGTTGCGT (site TTCTATGCTAC)	0.131
TTCTGAGCTTGGGTTCTAACCTGTTGCCT (site TTCTGAGCTAG)	0.184
TTCTGAGCTTGGGTTCTAACCTGTTGCCT (site TTCTGCGCTAG)	0.0635
TTCTGAGCTTGGGTTCTAACCTGTTGCCT (site TTCTGGGCTAG)	0.115
TTCTGAGCTTGGGTTCTAACCTGTTGCCT (site TTCTGTGCTAG)	0.0128
TTCTGTGCTTGGGTTCTAACCTGTTGCCT (site TTCTGAGCTAG)	0.0672
TTCTGTGCTTGGGTTCTAACCTGTTGCCT (site TTCTGCGCTAG)	0.0701
TTCTGTGCTTGGGTTCTAACCTGTTGCCT (site TTCTGGGCTAG)	0.0555
TTCTGTGCTTGGGTTCTAACCTGTTGCCT (site TTCTGTGCTAG)	0.0428
TTGAAATCTTGGGTTCTAACCTGTTGCCT (site TTGAAATCTAG)	0.131
TTGAAATCTTGGGTTCTAACCTGTTGCCT (site TTGACATCTAG)	0.0533

Sequence	recombinant barcode read abundance (log10)
TTGAAATCTTGGGTTCTAACCTGTTGCCT (site TTGAGATCTAG)	0.0296
TTGAAATCTTGGGTTCTAACCTGTTGCCT (site TTGATATCTAG)	0.0563
TTGAACTCTTGGGTTCTAACCTGTTGCCT (site TTGAACTCTAG)	1.18
TTGAACTCTTGGGTTCTAACCTGTTGCCT (site TTGAGCTCTAG)	0.0203
TTGAATCCTTGGGTTCTAACCTGTTGCCA (site TTGAATCCTTG)	0.71
TTGAATCCTTGGGTTCTAACCTGTTGCCA (site TTGAGTCCTTA)	0.0534
TTGACATCTTGGGTTCTAACCTGTTGCCT (site TTGAAATCTAG)	0.179
TTGACATCTTGGGTTCTAACCTGTTGCCT (site TTGACATCTAG)	0.216
TTGACATCTTGGGTTCTAACCTGTTGCCT (site TTGAGATCTAG)	0.0391
TTGACATCTTGGGTTCTAACCTGTTGCCT (site TTGATATCTAG)	0.147
TTGACGACTTGGGTTCTAACCTGTTGCCG (site CACCGAGCTTA)	0.149
TTGACGACTTGGGTTCTAACCTGTTGCCG (site TTGACGACTCG)	0.452
TTGAGATCTTGGGTTCTAACCTGTTGCCT (site TTGAAATCTAG)	0.0577
TTGAGATCTTGGGTTCTAACCTGTTGCCT (site TTGACATCTAG)	0
TTGAGATCTTGGGTTCTAACCTGTTGCCT (site TTGAGATCTAG)	0.0355
TTGAGATCTTGGGTTCTAACCTGTTGCCT (site TTGATATCTAG)	0.264
TTGAGCTCTTGGGTTCTAACCTGTTGCCT (site TTGAACTCTAG)	0.0507
TTGAGCTCTTGGGTTCTAACCTGTTGCCT (site TTGAGCTCTAG)	0.952
TTGAGGACTTGGGTTCTAACCTGTTGCCA (site TTGAGGACTAC)	1.14
TTGAGGACTTGGGTTCTAACCTGTTGCCA (site TTGAGGACTTG)	0.943
TTGAGTACTTGGGTTCTAACCTGTTGCCG (site TTGAGTACTCG)	0.577
TTGAGTACTTGGGTTCTAACCTGTTGCCG (site TTGATTACTTG)	0.0556

Sequence	recombinant barcode read abundance (log10)
TTGAGTCCTTGGGTTCTAACCTGTTGCTA (site TTGAATCCTTG)	0.037
TTGAGTCCTTGGGTTCTAACCTGTTGCTA (site TTGAGTCCTTA)	0.488
TTGCATCCTTGGGTTCTAACCTGTTGCAG (site CGTTGGTCTTC)	0.0529
TTGCATCCTTGGGTTCTAACCTGTTGCAG (site TTGCATCCTCT)	0.802
TTGCCAACTTGGGTTCTAACCTGTTGCCT (site TTGCAAACTAG)	0.146
TTGCCAACTTGGGTTCTAACCTGTTGCCT (site TTGCCAACTAG)	0.332
TTGCCAACTTGGGTTCTAACCTGTTGCCT (site TTGCGAACTAG)	0.0564
TTGCCAACTTGGGTTCTAACCTGTTGCCT (site TTGCTAACTAG)	0.00831
TTGCCGACTTGGGTTCTAACCTGTTGCCT (site TTGCCGACTAG)	0.716
TTGCCGACTTGGGTTCTAACCTGTTGCCT (site TTGCCTACTAG)	0
TTGCCTACTTGGGTTCTAACCTGTTGCCT (site TTGCCGACTAG)	0.0577
TTGCCTACTTGGGTTCTAACCTGTTGCCT (site TTGCCTACTAG)	0.339
TTGCGAGCTTGGGTTCTAACCTGTTGCAT (site TTGCGAGCTAT)	1.82
TTGCGAGCTTGGGTTCTAACCTGTTGCAT (site TTGCGTGCTAA)	0.0906
TTGGATCCTTGGGTTCTAACCTGTTGCTT (site TTGGATCCTAA)	1.87
TTGGATCCTTGGGTTCTAACCTGTTGCTT (site TTGGATCCTAG)	1.85
TTGGGCACTTGGGTTCTAACCTGTTGCCT (site TTGGACACTAG)	0.196
TTGGGCACTTGGGTTCTAACCTGTTGCCT (site TTGGCCACTAG)	0.176
TTGGGCACTTGGGTTCTAACCTGTTGCCT (site TTGGGCACTAG)	0.0687
TTGGGCACTTGGGTTCTAACCTGTTGCCT (site TTGGTCACTAG)	0.103
